Tests used:
[1] = biological target: Full length human CDC7 protein co-expressed with DBF4 (Homo sapiens (Human), UniProt O00311); assay: CDC7 kinase biochemical assay (ADP-Glo, PDKtide substrate); conditions: 0.1 nM CDC7/DBF4, 1 uM ATP, 10 uM PDKtide, 4 h
Description: CDC7 Kinase Biochemical Assay Protocol:
Full length human CDC7 protein co-expressed with DBF4 was purchased from SignalChem (China). CDC7 kinase activity was determined with PDKtide (SignalChem) as a substrate and by measuring ADP production using the ADP-Glo™ Kinase Assay kit (Promega) following the manufacturers instructions. The kinase reaction was performed using the following conditions: Buffer: 40 mM Tris pH 7.5, 20 mM MgCl2, 0.1 mg/ml BSA and 50 uM DTT. Final reaction mix contained 0.1 nM CDC7/DBF4, 1 uM ATP and 10 uM PDKtide. The kinase reaction time was 4 h. The ADP-Glo signal was measured using an EnVision plate reader (PerkinELmer).
Percent inhibition of CDC7 kinase activity was calculated based on the following formula:
[formula] • Ssample: the signal of compounds • SHigh Ctrl: the signal of high control (DMSO) • SLow Ctrl: the signal of low control (positive control CDC7 inhibitor)

[2] = tested on: phosphorylation of MCM2 S53 in colo205 cells; assay: Phosphorylated MCM2 MSD electrochemiluminescence assay; type: cell-based; conditions: Homo sapiens, COLO 205, 20 h incubation, read-out: pMCM2-S53 MSD Colo205 IC50
Description: Phosphorylated MCM2 MSD Electrochemiluminescence Assay
The effect of CDC7 inhibitors on cellular phosphorylation of the CDC7 substrate MCM2 was determined using the following protocol:
A total of 40,000 colo205 cells in 100 uL culture medium (1640 medium+10% Fetal bovine serum+1% Penicillin-Streptomycin) were plated in 96-well cell culture plates and allowed to attach for 6 hours. 3-fold serial dilutions of test compounds were prepared in completed PBS at 25×final concentration and 4 uL of each were added to the cells and incubated for 20 hours at 37° C., 5% CO2. Each concentration was tested in duplicate. After the 20 h incubation, cells were washed with 150 uL PBS and lysed with 40 uL MSD lysis buffer (obtained from Meso Scale Diagnostics) supplied with 1×complete ULTRA cocktail inhibitor (obtained from Roche). To detect phosphorylation of MCM2 S53, 30 μL of capture antibody solution (obtained from Abnova, catalog number H00004171-MO1, 1:500) was added to each well of MULTI-ARRAY 96-well High Bind Plate, and incubated overnight. The antibody solution was removed, wells blocked with BSA solution and plates washed, followed by addition of 30 ul of cell lysate per well. After 2 h incubation, plates were washed. 30 μL of 1×detection antibody solution (obtained from Abcam, catalog number ab109133, 1:1000) was then added to each well and incubate for 1 hour. Plates were washed and 30 μL of 1×secondary antibody solution (obtained from MSD, catalog number R32AB-1, 1:5000) was added to each well and incubate for 1 hour. Plates were washed and 150 µL of 1×Read Buffer T was added to each well of the MSD plate. The electrochemiluminescence signal was measured on a MESO SECTOR S600 plate reader. The percentage of remaining phosphorylated MCM2 signal was calculated following the equation below.
[formula] • HC (high control): Cells treated with DMSO • Cpds: Cells treated with test compounds • LC (low control): Cells treated with positive control CDC7 inhibitor

Sequence of Full length human CDC7 protein co-expressed with DBF4 (O00311 whole entry): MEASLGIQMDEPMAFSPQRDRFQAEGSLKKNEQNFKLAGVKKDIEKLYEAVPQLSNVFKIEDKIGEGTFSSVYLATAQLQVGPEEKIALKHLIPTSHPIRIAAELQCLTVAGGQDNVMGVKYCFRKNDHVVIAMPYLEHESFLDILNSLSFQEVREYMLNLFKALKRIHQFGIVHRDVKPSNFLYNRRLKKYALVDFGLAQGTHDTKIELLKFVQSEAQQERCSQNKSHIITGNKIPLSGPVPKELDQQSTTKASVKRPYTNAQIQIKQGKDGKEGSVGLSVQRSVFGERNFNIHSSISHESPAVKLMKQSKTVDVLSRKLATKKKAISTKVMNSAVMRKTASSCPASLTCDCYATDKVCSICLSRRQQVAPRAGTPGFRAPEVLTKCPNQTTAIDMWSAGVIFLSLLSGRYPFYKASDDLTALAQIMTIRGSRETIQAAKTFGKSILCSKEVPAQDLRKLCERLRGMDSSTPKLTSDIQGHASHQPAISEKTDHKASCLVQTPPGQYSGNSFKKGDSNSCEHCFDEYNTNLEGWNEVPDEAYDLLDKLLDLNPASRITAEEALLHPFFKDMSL
Sequence of Full length human CDC7 protein co-expressed with DBF4 (Q9UBU7 whole entry partner): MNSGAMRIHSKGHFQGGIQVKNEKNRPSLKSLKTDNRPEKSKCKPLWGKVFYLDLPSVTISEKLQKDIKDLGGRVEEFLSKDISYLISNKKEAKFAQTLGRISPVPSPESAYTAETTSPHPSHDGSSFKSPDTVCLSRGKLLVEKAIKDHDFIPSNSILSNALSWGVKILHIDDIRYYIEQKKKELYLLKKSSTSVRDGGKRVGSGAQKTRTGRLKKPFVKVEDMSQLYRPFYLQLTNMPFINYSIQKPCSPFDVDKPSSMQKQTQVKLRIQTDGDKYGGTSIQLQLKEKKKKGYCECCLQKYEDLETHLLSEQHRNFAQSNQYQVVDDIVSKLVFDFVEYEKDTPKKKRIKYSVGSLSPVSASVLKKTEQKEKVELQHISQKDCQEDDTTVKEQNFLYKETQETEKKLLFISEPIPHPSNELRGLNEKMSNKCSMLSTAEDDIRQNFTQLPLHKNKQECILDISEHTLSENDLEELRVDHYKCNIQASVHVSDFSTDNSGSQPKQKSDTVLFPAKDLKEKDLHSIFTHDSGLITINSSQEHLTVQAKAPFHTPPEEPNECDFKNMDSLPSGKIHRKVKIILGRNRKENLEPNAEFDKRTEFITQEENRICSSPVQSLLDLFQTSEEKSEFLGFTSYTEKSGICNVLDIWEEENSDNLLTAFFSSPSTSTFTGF

## Cc1[nH]c(=O)c2sc(-c3ccncc3)c3c2c1C[C@@H](C)O3 (single isomer, unassigned) [Example 7]
[1]
  IC50: < 1 nM
[2]
  IC50: 100 to 1000 nM

## Cc1[nH]c(=O)c2sc(-c3ccncc3)c3c2c1C[C@H](C)O3 (single isomer, unassigned) [Example 8]
[1]
  IC50: < 1 nM
[2]
  IC50: 100 to 1000 nM

## C[C@@H](c1[nH]c(=O)c2sc(-c3cn[nH]c3)c3c2c1CCCO3)N1CCC1 (single isomer, unassigned) [Example 30]
[1]
  IC50: < 1 nM
[2]
  IC50: < 100 nM

## C[C@H](c1[nH]c(=O)c2sc(-c3cn[nH]c3)c3c2c1CCCO3)N1CCC1 (single isomer, unassigned) [Example 31]
[1]
  IC50: < 1 nM
[2]
  IC50: < 100 nM

## C[C@H](c1[nH]c(=O)c2sc(-c3cn[nH]c3)c3c2c1CCCO3)n1cccn1 (single isomer, unassigned) [Example 46]
[1]
  IC50: < 1 nM
[2]
  IC50: 100 to 1000 nM

## C[C@@H](c1[nH]c(=O)c2sc(-c3cn[nH]c3)c3c2c1CCCO3)n1cccn1 (single isomer, unassigned) [Example 47]
[1]
  IC50: < 1 nM
[2]
  IC50: < 100 nM

## CC[C@](C)(O)c1[nH]c(=O)c2sc(-c3cn[nH]c3)c3c2c1CCCO3 (single isomer, unassigned) [Example 57]
[1]
  IC50: < 1 nM
[2]
  IC50: < 100 nM

## CC[C@@](C)(O)c1[nH]c(=O)c2sc(-c3cn[nH]c3)c3c2c1CCCO3 (single isomer, unassigned) [Example 58]
[1]
  IC50: < 1 nM
[2]
  IC50: < 100 nM

## Cc1[nH]c(=O)c2sc(-c3ccncc3)c3c2c1CCCO3 [Example 1, 5-methyl-1-(pyridin-4-yl)-4,6,7,8-tetrahydro-3H-9-oxa-2-thia-4-azabenzo[cd]azulen-3-one]
[1]
  IC50: < 1 nM
[2]
  IC50: 100 to 1000 nM

## Cc1[nH]c(=O)c2sc(-c3cn[nH]c3)c3c2c1CCCO3 [Example 5, 5-methyl-1-(1H-pyrazol-4-yl)-4,6,7,8-tetrahydro-3H-9-oxa-2-thia-4-azabenzo[cd]azulen-3-one]
[1]
  IC50: < 1 nM
[2]
  IC50: < 100 nM

## O=c1[nH]c(CN2CCC2)c2c3c(c(-c4cn[nH]c4)sc13)OCCC2 [Example 13, 5-(azetidin-1-ylmethyl)-1-(1H-pyrazol-4-yl)-4,6,7,8-tetrahydro-3H-9-oxa-2-thia-4-azabenzo[cd]azulen-3-one]
[1]
  IC50: < 1 nM
[2]
  IC50: < 100 nM

## CC(C)NCc1[nH]c(=O)c2sc(-c3cn[nH]c3)c3c2c1CCCO3 [Example 24, 5-((isopropylamino)methyl)-1-(1H-pyrazol-4-yl)-4,6,7,8-tetrahydro-3H-9-oxa-2-thia-4-azabenzo[cd]azulen-3-one]
[1]
  IC50: < 1 nM
[2]
  IC50: 100 to 1000 nM

## CC(C)(O)c1[nH]c(=O)c2sc(-c3cn[nH]c3)c3c2c1CCCO3 [Example 28, 5-(2-hydroxypropan-2-yl)-1-(1H-pyrazol-4-yl)-4,6,7,8-tetrahydro-3H-9-oxa-2-thia-4-azabenzo[cd]azulen-3-one]
[1]
  IC50: < 1 nM
[2]
  IC50: < 100 nM

## O=c1[nH]c(CN2CCC2)c2c3c(c(-c4cn[nH]c4)sc13)OCC(F)(F)C2 [Example 44, 7-(azetidin-1-ylmethyl)-10,10-difluoro-2-(1H-pyrazol-4-yl)-12-oxa-3-thia-6-azatricyclo[6.4.1.0^4,13]trideca-1,4(13),7-trien-5-one]
[1]
  IC50: < 1 nM
[2]
  IC50: < 100 nM

## O=C(c1[nH]c(=O)c2sc(-c3cn[nH]c3)c3c2c1CCCO3)N1CCCC1 [Example 51, 2-(1H-pyrazol-4-yl)-7-(pyrrolidine-1-carbonyl)-12-oxa-3-thia-6-azatricyclo[6.4.1.0^4,13]-trideca-1,4(13),7-trien-5-one]
[1]
  IC50: 1 to 10 nM
[2]
  IC50: ≥ 1000 nM

## Nc1[nH]c(=O)c2sc(-c3cn[nH]c3)c3c2c1CCCO3 [Example 54, 7-amino-2-(1H-pyrazol-4-yl)-12-oxa-3-thia-6-azatricyclo[6.4.1.0^4,13]trideca-1,4(13),7-trien-5-one]
[1]
  IC50: < 1 nM
[2]
  IC50: ≥ 1000 nM

## O=c1[nH]c(COC2CCC2)c2c3c(c(-c4cn[nH]c4)sc13)OCCC2 [Example 55, 5-(cyclobutoxymethyl)-1-(1H-pyrazol-4-yl)-4,6,7,8-tetrahydro-3H-9-oxa-2-thia-4-azaben-zo[cd]azulen-3-one]
[1]
  IC50: < 1 nM
[2]
  IC50: < 100 nM
